From patent US20170189376A1, “BUTYROYLOXYMETHYL DIETHYL PHOSPHATE COMPOUNDS AND USES THEREOF” (MOR RESEARCH APPLICATIONS LTD., priority 2016, published 2017) come the findings set out here.

The test system of test [1] is MyLa cells. In words: Alkaline comet assay, MyLa cells. The format is cell-based, human. The conditions noted are these: 96 h after treatment, relative to 24 h. The method, then: (§1) Comet assay using the Trevigen Comet assay kit (Trevigen Inc., Gaithersburg, Md., USA) was done according to the manufacturer's protocol. MyLa or Hut78 cells were treated with drugs, washed, incubated for interval time, washed in PBS, counted and suspended in PBS. 1 ×10^5 cells/ml were incubated with pre-heated low melting agarose for 20 min in 37° C., loaded on a comet-slide and kept in the dark for 30 min at 4° C., in cold lysis solution for another 20 min, and finally for 20 min with unwinding solution in RT. The slides were run with cold fresh alkaline electrophoresis buffer in the COMET-20 electrophoresis system (Scie-Plas, Harvard apparatus, UK) for 20 min in 21 volts, 4° C. Slides were stirred gently and washed twice in dH20 bath for 5 min and in 70% ethanol for 5 min. […] The cells were scored under fluorescence microscope (Nikon eclipse 55i, Tokyo, Japan) at a magnification ×10. Cell scores were analyzed using the software “Comet Assay IV” (perceptive instruments, UK). […] 24h after treating the cells the mean tail moment reaches its maximal level, therefore the percent of repaired damage was calculated as follows: (mean tail moment at 24h)−(mean tail moment at indicated time)/mean tail moment at 24 h. At least a total of 100 cells were measured per time-point. […]

Test [2] deals with p-KAP1, γH2AX in MyLa cells. In words: Western blot of p-KAP1 and γH2AX, MyLa cells. The class given is cell-based, human. The conditions noted are these: 1 mM AN-7 2 h, 1 μM Dox 1 h, or AN-7 1 h followed with Dox 1 h. How it is done:
Cell fraction—3×10^6cells were suspended in 100 μl hypotonic buffer (HEPES 10 mM, KCl 5 mM, MgCl2 1.5 mM, DTT 1 mM, NP-40 1%), incubated for 15 min in ice, centrifuged and the supernatant fraction was subjected to western blot of pKAP1 and actin. The sediment was washed once with hypotonic buffer followed by suspension in 100 μl of hypertonic buffer (HEPES 10 mM, NaCl 500 mM, MgCl2 1.5 mM, DTT 1 mM, NP-40 1%), incubated for 15 min in ice, centrifuged, supernatant was removed and the sediment was boiled, vortexed for 10 min at 95° C. with sample buffer ×3 for 3 times and subjected to western blot of γH2AX.
(§2) Whole cells extract—Cells were suspended in lysis buffer (Tris-HCl 50 mM, NaCl 150 mM, NP-40 0.5%), incubated for lh on ice, centrifuged and the supernatant was collected. Protease and Phosphatase inhibitors were added to all buffers at a 1:100 dilutions. […] Bands were visualized by Odyssey Infrared Imaging System and the bands intense were normalized to actin.
Next, cells were fractionated and fraction lysate were subjected to western blot of phosphorylated KAP1 (p-KAP1), γH2AX and actin.

The subject of test [3] is Sezary syndrome Peripheral blood lymphocytes SPBL. In words: MTT-based viability assay, Sezary PBL (SPBL). The conditions noted are these: Homo sapiens, Lymphocyte, 72 h, read-out: IC50 single treatment Dox. On the technique in general: Formazan colour is commonly taken as a measure of viable cells.
Description: (§4) Peripheral blood was diluted 1:3 in sterile phosphate-buffered saline (PBS). Lymphoprep was added in the same blood volume with a Pasteur pipette, and the sample was centrifuged. PBL were collected from the white median interphase, rinsed twice with PBS, and suspended in RPMI medium with 10 mM HEPES to 2×10^6 cells/mL.
(§5) MyLa cells (10^4), Hut78 cells (5×10^3), SPBL and NPBL (10^5) were seeded in triplicate in 96-well plates. The PBL were activated with PHA 40 μg/10^6 cell for 24 h before the experiment. […] The cells were then placed in a humidified incubator for 72 h. […] The MTT reagent was added to a final concentration of 0.5 mg/mL, and the cells were incubated for an additional 4 h. Thereafter, 0.1N HCl in isopropanol was added, and cell viability was determined using an ELISA reader (PowerWaveX, BioTek, Winooski, Vt., USA) at a 570 nm wavelength with background subtraction at 630-690 nM.
(§6) Viability and apoptosis curves were based on the averages of at least 3 independent experiments. The standard error (SE) was calculated for each group as follows: SE=standard deviation/√n, where n is number of values in the group. […] Significant differences in selectivity among groups were analyzed by comparing the IC50 values using two-tailed unpaired t-test using Excel or by comparing the differential effects for all the dose response titrations using ANOVA with repeated measures.
(§7) NPBL were treated at same molar ratio as SPBL.
Test [4] deals with NPBL. In words: MTT-based viability assay, normal PBL (NPBL).
Description: as §4, §5, §6, §7
Test [5] concerns NBS1, Rad51, Mre11, DNA-PK, Ku70 in Hut78 cells. In words: Western blot of DSB repair proteins, Hut78 cells. The class given is cell-based, homo sapiens. The conditions noted are these: Hut78, 18 and 24 h post treatment. The method, then: as §2
(§3) To address whether AN-7 interfere in DSBs repair by regulating the expression of DSBs repair proteins, Immunoblot was applied for those proteins. MyLa and Hut78 cells were treated as previously described and subjected to western blot of DSBs repair proteins.
(In general: Immunoblotting shows a protein as a band on a membrane.)

In test [6] the test system is Hut78 cells. In words: MTT-based viability assay, Hut78 cells. The conditions noted are these: Homo sapiens, HuT78, 72 h, read-out: IC50 single treatment Dox.
Description: as §5, §6
In test [7] the test system is MyLa cells. In words: MTT-based viability assay, MyLa cells. The conditions noted are these: Homo sapiens, 72 h.
Description: as §5, §6
The test system of test [8] is NBS1, Rad51, Mre11, DNA-PK, Ku70 in MyLa cells. In words: Western blot of DSB repair proteins, MyLa cells. The conditions noted are these: 24 and 48 h post treatment. The format is cell-based, human. The method, then:
as §2, §3

Test [9] concerns γH2AX foci in Hut78 cells. In words: γH2AX nuclear foci immunofluorescence, Hut78 cells. The class given is cell-based, homo sapiens. The conditions noted are these: Hut78, 24 h-72 h after treatment, relative to 3 h. The method, then: MyLa or Hut78 cells were treated with drugs, washed, incubated for interval time, and then 2×10^5cells/m1 were centrifuged with cyto-slides (CytoSlide, Shandon, Thermo, Ma, USA) in CYTOSPIN 4 (Shandon, Thermo scientific, West Palm Beach, USA) for 5 min 1000 rpm. Slides were washed with cold PBS on ice, pre-extracted with cold PBS-NP40-0.2% for 10 min, washed 3 times with cold PBS, fixed with 4% Paraformaldehyde for 10 min at RT, and washed 3 times with PBS. Slides were incubated with anti γ-H2AX, Bethyl A300-081A 1:1000, for 1.5 h in RT, washed twice in PBS-T (0.05% Tween in PBS) and once with PBS, incubated with Donkey anti rabbit IgG Alexa Fluor A-21206 1:700, for 30 min at RT, washed 3 times with PBS, dried gently, covered with 1 drop of Fluorescent mounting medium with DAPI (GBI-labs, WA, USA) and on top with cover glass. Slides were visualized in a light microscope (Olympus BX52, Tokyo, Japan). Foci analysis was performed using ImageJ software and PZfociEZ plugin. % of cells with >5 foci/cell was considered as damaged cells. % of repaired damage was calculated as follows: (% of cells with >5 foci/cell at 3 h)−(% of cells with >5 foci/cell at indicated time)/(% of cells with >5 foci/cell at 3 h). At least a total of 150 cells were measured per time-point.

Test [10] deals with Hut78 cells. In words: Alkaline comet assay, Hut78 cells. The format is cell-based, homo sapiens. The conditions noted are these: Hut78, 72 h after treatment, relative to 24 h. How it is done: as §1
Test [11] deals with Hut78 cells. In words: FACS analysis with annexin V and PI staining (apoptosis), Hut78 cells. The conditions noted are these: Hut78; SAHA 10 μM or AN-7 300 μM. In general terms: In flow cytometry, cells or beads pass a laser one at a time.
Description: (§8) The cells (2.5×10^6 cells/mL) were washed in PBS and binding buffer and were resuspended in binding buffer, and of fluorescein isothiocyanate-conjugated annexin V (5 μL) was added to a 100 μL cell suspension for 10-15 min. Incubation was performed at room temperature under light-protected conditions. The cells were then washed in binding buffer and were resuspended in the binding buffer and propidium iodide (PI) (5 μL) was added. The samples were analyzed by flow cytometry (FACS Calibur 4.1.6, Becton Dickinson): fluorescein-labeled annexin V at a 530 nm wavelength, and PI at a 585 nm wavelength. The percentage of cells was calculated by their distribution in a fluorescence dot plot generated with FCS Express 4 software (De Novo Software, Los Angeles, Calif., USA). Early (annexin V-positive) and late (annexin V+PI-positive) apoptotic cells were summed to yield the total number of apoptotic cells.
Test [12] relates to HDAC1. In words: Western blot of HDAC1 protein expression in MF/SS cell lines. The class given is cell-based, human. The conditions noted are these: MyLa and Hut78, SAHA 10 μM or AN-7 300 μM.
In test [13] the test system is Acetylated H3. In words: Western blot of acetylated H3 in nuclear lysate of MF/SS cell lines. The conditions noted are these: MyLa and Hut78, SAHA 10 μM or AN-7 300 μM.
Description: Cells (5×10^6) were suspended in 300 μL of cytoplasmic buffer (HEPES 10 mM, KCl 10 mM, EDTA 1 mM, EGTA 1 mM, DTT 1 mM). After 20 min of incubation on ice, the mixture was passed 5 times through a 25-G syringe and then centrifuged briefly to obtain the cytoplasmic supernatant.
The nuclear pellet was suspended in 40-60 μL of nuclear buffer (cytoplasmic buffer+10% glycerol), incubated with shaking at 4° C. for 15 min, and centrifuged. The supernatant was collected as a nuclear fraction.
Cell extracts were separated by SDS-polyacrylamide gel electrophoresis (SDS-PAGE), transferred to a nitrocellulose membrane, and subjected to immunoblot with primary and secondary antibodies, as listed in table 1.
Test [14] concerns caspase 3, PARP, P21 and Bax in MF/SS cell lines. In words: Western blot of pro-apoptotic proteins in MF/SS cell lines. The conditions noted are these: MyLa and Hut78, SAHA 10 μM or AN-7 300 μM. The format is cell-based, human. From the text: However, there was a stronger signal in response to SAHA.
In test [15] the test system is MyLa cells. In words: cells. The class given is cell-based, human. The conditions noted are these: Homo sapiens.
Test [16] has as its system MyLa cells. In words: FACS analysis with annexin V and PI staining (apoptosis), MyLa cells. The conditions noted are these: SAHA 10 μM or AN-7 300 μM.
Description: as §8

As to `COc1cccc2c1C(=O)c1c(O)c3c(c(O)c1C2=O)C[C@@](O)(C(=O)CO)C[C@@H]3O[C@H]1C[C@H](N)[C@H](O)[C@H](C)O1` [Dox, doxorubicin, reference compound], in test [1], the “damage repair (DNA breaks, mean tail moment)” value was “about 72%”. Moreover, the “induction and clearance of p-KAP1” value in test [2] is “detected at 1-3 hours and declined after 24 hours”. In addition, the “induction and clearance of γH2AX” value in [2] was “clearance of γH2AX observed at 24 h”. The IC50 (commonly the concentration at which inhibition is half-maximal) in test [3] was found to be 68.2 ± 10.8 nM; in test [4] (Homo sapiens, 72 h, read-out: IC50 single treatment Dox), 399 ± 24.3 nM; in test [6], 27 ± 2.6 nM; in [7] (read-out: IC50 single treatment Dox), 19 ± 1 nM. The “expression of NBS1 and DNA-PK” value in [5] is “did not affect the expression of DSB repair proteins”. Further, the “expression of NBS1, Mre11, Rad51 and DNA-PK” value in test [8] was “did not affect the expression of DSB repair proteins”. For the same compound, the “percentage of repaired damage (γH2AX foci)” value in test [9] is given as 77.9%. Further, the “repair of DNA breaks (mean tail moment)” value in test [10] is on record as “about 50%”.
Regarding `O=C(CCCCCCC(=O)Nc1ccccc1)NO` [SAHA, Suberoylanilide hydroxamic acid, reference compound], the apoptosis result in test [11] and in test [16] was “about 60%” each time. In addition, the HDAC1 expression level result in [12] is “downregulated”. In addition, the “expression of acetylated H3” value in test [13] is listed as “induced”. Also, the “NPBL survival at high doses” value in test [4] (high doses lethal to Hut78 and MyLa cells) was “lethal to all cells”. Further, in test [14], the “expression of pro-apoptotic proteins (western blot)” value was “cleavage of caspase 3 and poly ADP-ribose polymerase (PARP) and the production of P21 and Bax”. For the same compound, the 50% inhibitory concentration (IC50) in test [7] (read-out: IC50 single treatment (HDACI)) is 2200 ± 100 nM; in test [15] (24 h, read-out: IC50 Long exposure), 2300 ± 80 nM; in test [15] (read-out: IC50 Short exposure), 33000 ± 3700 nM.
